Where “and” joins values, the source holds several entries; their conditions need not be identical. Equal entries are not always repeated. Inconclusive results and toxic doses are left out. Rule as the data show it: active = T/C of 150% or more; inactive = T/C below 125%.
System: L1210 leukemia ip in BDF1 mice, survival T/C
Assay: NCI In Vivo Anticancer Drug Screen. Data for tumor model L1210 Leukemia (intraperitoneal) in B6D2F1 (BDF1) mice
Conditions: endpoint: mean survival time, higher = longer survival
Procedure, shortened: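 Transplanted-tumor mice were given test agent; controls received vehicle only. Survival readings from the two groups were divided (treated over control).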

[1] = dose: 100.0 mg/kg/injection, schedule: Q01DX009 (ip), vehicle: saline with Tween-80
[2] = dose: 100.0 mg/kg/injection, schedule: Q04DX003 (ip), vehicle: saline with Tween-80
[3] = dose: 200.0 mg/kg/injection, schedule: Q01DX009 (ip), vehicle: saline with Tween-80
[4] = dose: 200.0 mg/kg/injection, schedule: Q04DX003 (ip), vehicle: saline with Tween-80
[5] = dose: 400.0 mg/kg/injection, schedule: Q01DX009 (ip), vehicle: saline with Tween-80
[6] = dose: 400.0 mg/kg/injection, schedule: Q04DX003 (ip), vehicle: saline with Tween-80
[7] = dose: 50.0 mg/kg/injection, schedule: Q01DX009 (ip), vehicle: water
[8] = dose: 100.0 mg/kg/injection, schedule: Q01DX009 (ip), vehicle: water
[9] = dose: 100.0 mg/kg/injection, schedule: Q01DX009 (ip), vehicle: saline sonified
[10] = dose: 200.0 mg/kg/injection, schedule: Q01DX009 (ip), vehicle: saline sonified
[11] = dose: 400.0 mg/kg/injection, schedule: Q01DX009 (ip), vehicle: saline sonified
[12] = dose: 200.0 mg/kg/injection, schedule: Q01DX001 (ip), vehicle: saline

Measured: T/C

N=C(N=C(N)N)N1CCOCC1
inactive: [1] 101 % of control | [2] 105 % of control | [3] 98 % of control | [4] 112 % of control | [5] 103 % of control | [6] 104 % of control

C=CCN(CC=C)/N=N\c1nc[nH]c1C(=O)OC
inactive: dose: 100.0 mg/kg/injection, schedule: Q01DX001 (ip), vehicle: saline with Tween-80 100 % of control | [1] 109 % of control | [2] 98 % of control | dose: 200.0 mg/kg/injection, schedule: Q01DX001 (ip), vehicle: saline with Tween-80 102 % of control | [3] 95 % of control | [4] 98 % of control | dose: 400.0 mg/kg/injection, schedule: Q01DX001 (ip), vehicle: saline with Tween-80 98 % of control | [5] 93 % of control | [6] 96 % of control

CCN(CC)CCC(C=NCC(CCN(CC)CC)(c1cccc2ccccc12)C(C)C)(c1cccc2ccccc12)C(C)C (stereo not given)
inactive: dose: 1.5 mg/kg/injection, schedule: Q04DX002 (ip), vehicle: saline + alcohol 108 % of control | dose: 3.1 mg/kg/injection, schedule: Q04DX002 (ip), vehicle: saline + alcohol 102 % of control | dose: 6.25 mg/kg/injection, schedule: Q04DX002 (ip), vehicle: saline + alcohol 94 % of control | dose: 12.5 mg/kg/injection, schedule: Q04DX002 (ip), vehicle: saline + alcohol 92 % of control | dose: 25.0 mg/kg/injection, schedule: Q04DX002 (ip), vehicle: saline + alcohol 92 % of control | dose: 25.0 mg/kg/injection, schedule: Q04DX002 (ip), vehicle: saline with Tween-80 92 % of control

C[S+]1CCC(N)C(=O)C1 (stereo not given)
inactive: dose: 12.5 mg/kg/injection, schedule: Q04DX002 (ip), vehicle: saline 103 % of control | dose: 25.0 mg/kg/injection, schedule: Q04DX002 (ip), vehicle: saline 120 % of control | dose: 50.0 mg/kg/injection, schedule: Q04DX002 (ip), vehicle: saline 113 % of control and 91 % of control | dose: 100.0 mg/kg/injection, schedule: Q04DX002 (ip), vehicle: saline 103 % of control

NCCCn1c2ccccc2c2cnccc21
inactive: dose: 12.5 mg/kg/injection, schedule: Q01DX009 (ip), vehicle: saline 101 % of control | dose: 25.0 mg/kg/injection, schedule: Q01DX009 (ip), vehicle: saline 101 % of control | dose: 25.0 mg/kg/injection, schedule: Q04DX003 (ip), vehicle: water 87 % of control | dose: 50.0 mg/kg/injection, schedule: Q01DX009 (ip), vehicle: saline 107 % of control | [7] 104 % of control | dose: 50.0 mg/kg/injection, schedule: Q04DX003 (ip), vehicle: water 92 % of control | [8] 103 % of control | dose: 100.0 mg/kg/injection, schedule: Q04DX003 (ip), vehicle: water 104 % of control and 87 % of control

NC(=O)c1ccc(NC(=O)CCC(=O)Nc2ccc(C(N)=O)cn2)nc1
inactive: dose: 0.36 mg/kg/injection, schedule: Q01DX Z (ip), vehicle: carboxymethylcellulose (CMC) 105 % of control | dose: 0.55 mg/kg/injection, schedule: Q01DX Z (ip), vehicle: carboxymethylcellulose (CMC) 102 % of control | dose: 0.83 mg/kg/injection, schedule: Q01DX Z (ip), vehicle: carboxymethylcellulose (CMC) 102 % of control | dose: 1.0 mg/kg/injection, schedule: Q01DX Z (ip), vehicle: carboxymethylcellulose (CMC) 105 % of control | dose: 1.25 mg/kg/injection, schedule: Q01DX Z (ip), vehicle: carboxymethylcellulose (CMC) 103 % of control and 114 % of control | dose: 2.0 mg/kg/injection, schedule: Q01DX Z (ip), vehicle: carboxymethylcellulose (CMC) 107 % of control | dose: 2.5 mg/kg/injection, schedule: Q01DX Z (ip), vehicle: carboxymethylcellulose (CMC) 110 % of control | dose: 3.0 mg/kg/injection, schedule: Q01DX Z (ip), vehicle: carboxymethylcellulose (CMC) 95 % of control | dose: 4.0 mg/kg/injection, schedule: Q01DX Z (ip), vehicle: carboxymethylcellulose (CMC) 104 % of control | dose: 5.0 mg/kg/injection, schedule: Q01DX Z (ip), vehicle: carboxymethylcellulose (CMC) 124 % of control and 91 % of control | dose: 10.0 mg/kg/injection, schedule: Q01DX Z (ip), vehicle: carboxymethylcellulose (CMC) 118 % of control

Cc1ccc(C)c(C(=O)c2ccccc2C(=O)O)c1
inactive: dose: 10.0 mg/kg/injection, schedule: Q01DX009 (ip), vehicle: saline 101 % of control | [9] 98 % of control | [2] 90 % of control | [10] 94 % of control | dose: 200.0 mg/kg/injection, schedule: Q01DX009 (ip), vehicle: saline 103 % of control | [4] 94 % of control | [11] 105 % of control | dose: 400.0 mg/kg/injection, schedule: Q01DX009 (ip), vehicle: saline 98 % of control | [6] 90 % of control

CCCCCCCC(=O)N1CCCCC1C (stereo not given)
inactive: dose: 100.0 mg/kg/injection, schedule: Q04DX002 (ip), vehicle: Klucel (hydroxypropylcellulose) (HPC) 103 % of control | dose: 200.0 mg/kg/injection, schedule: Q04DX002 (ip), vehicle: Klucel (hydroxypropylcellulose) (HPC) 103 % of control | dose: 400.0 mg/kg/injection, schedule: Q04DX002 (ip), vehicle: Klucel (hydroxypropylcellulose) (HPC) 98 % of control

COP1(=O)OC(C)C(C)O1 (stereo not given)
inactive: dose: 100.0 mg/kg/injection, schedule: Q01DX001 (ip), vehicle: saline 98 % of control | [12] 102 % of control | dose: 400.0 mg/kg/injection, schedule: Q01DX001 (ip), vehicle: saline 93 % of control

O=C(/C=C/c1cccc(Br)c1)c1ccc(Cl)cc1
inactive: dose: 50.0 mg/kg/injection, schedule: Q01DX009 (ip), vehicle: other 107 % of control | dose: 100.0 mg/kg/injection, schedule: Q01DX009 (ip), vehicle: other 92 % of control | dose: 100.0 mg/kg/injection, schedule: Q04DX003 (ip), vehicle: other 89 % of control | dose: 200.0 mg/kg/injection, schedule: Q01DX009 (ip), vehicle: other 96 % of control | dose: 200.0 mg/kg/injection, schedule: Q04DX003 (ip), vehicle: other 100 % of control

Cc1cc(OCCOC(=O)Nc2ccc(C)c([N+](=O)[O-])c2)ccc1Cl
inactive: dose: 50.0 mg/kg/injection, schedule: Q01DX009 (ip), vehicle: saline with Tween-80 93 % of control | [1] 87 % of control | [3] 87 % of control

O=CN1CCCC1C(=O)O (stereo not given)
inactive: dose: 25.0 mg/kg/injection, schedule: Q01DX009 (ip), vehicle: water 98 % of control | [7] 101 % of control | [8] 95 % of control | dose: 200.0 mg/kg/injection, schedule: Q01DX009 (ip), vehicle: water 101 % of control

COc1ccc2c(c1C)CCC1(CO)CC(C)=CCC21 (stereo not given)
inactive: [9] 93 % of control | [10] 94 % of control | [11] 91 % of control

O=C1CCCCC1C(=O)C(F)(F)C(F)(F)C(F)(F)F (stereo not given)
inactive: dose: 90.0 mg/kg/injection, schedule: Q01DX Z (ip), vehicle: methylcellulose (MC) 97 % of control | dose: 150.0 mg/kg/injection, schedule: Q01DX Z (ip), vehicle: methylcellulose (MC) 102 % of control | dose: 222.0 mg/kg/injection, schedule: Q01DX Z (ip), vehicle: methylcellulose (MC) 97 % of control | dose: 333.0 mg/kg/injection, schedule: Q01DX Z (ip), vehicle: methylcellulose (MC) 102 % of control

Cc1ccc(S(=O)(=O)/C(Cl)=C(/Cl)S(=O)(=O)c2ccc(C)cc2)cc1
inactive: dose: 3.12 mg/kg/injection, schedule: Q01DX009 (ip), vehicle: saline 95 % of control | dose: 6.25 mg/kg/injection, schedule: Q01DX009 (ip), vehicle: saline 97 % of control | dose: 6.25 mg/kg/injection, schedule: Q04DX003 (ip), vehicle: saline 88 % of control | dose: 12.5 mg/kg/injection, schedule: Q01DX001 (ip), vehicle: saline 94 % of control | dose: 12.5 mg/kg/injection, schedule: Q01DX009 (ip), vehicle: saline with Tween-80 95 % of control | dose: 12.5 mg/kg/injection, schedule: Q04DX003 (ip), vehicle: saline 92 % of control | dose: 25.0 mg/kg/injection, schedule: Q01DX001 (ip), vehicle: saline 92 % of control | dose: 25.0 mg/kg/injection, schedule: Q01DX009 (ip), vehicle: saline with Tween-80 89 % of control | [12] 103 % of control

CC1(C(=O)O)NCCS1 (stereo not given)
inactive: dose: 100.0 mg/kg/injection, schedule: Q01DX001 (ip), vehicle: carboxymethylcellulose (CMC) 95 % of control | dose: 200.0 mg/kg/injection, schedule: Q01DX001 (ip), vehicle: carboxymethylcellulose (CMC) 90 % of control | dose: 400.0 mg/kg/injection, schedule: Q01DX001 (ip), vehicle: carboxymethylcellulose (CMC) 90 % of control

— PubChem BioAssay AID248 (DTP/NCI, 2004)
